From ChEMBL document CHEMBL1143254, “Structure-based design of novel 2-amino-6-phenyl-pyrimido[5',4':5,6]pyrimido[1,2-a]benzimidazol-5(6H)-ones as potent and orally active inhibitors of lymphocyte specific kinase (Lck): synthesis, SAR, and in vivo anti-inflammatory activity” (J Med Chem, 2008)
pIC50: −log10 of the molar value. ≈ marks a conversion by molar mass, not a printed value.

What was measured:
Rattus norvegicus [1] = test: Antiinflammatory activity against collagen-induced arthritis in Lewis rat assessed as reduction of paw swelling at 10 mg/kg, po qd for 7 days relative to control; type: functional; design: scale not given: the % may be the effect or the level left
Rattus norvegicus [2] = test: Antiinflammatory activity against collagen-induced arthritis in Lewis rat assessed as reduction of paw swelling at 1 mg/kg, po qd for 7 days relative to control; type: functional; design: scale not given: the % may be the effect or the level left
Rattus norvegicus [3] = test: Antiinflammatory activity against collagen-induced arthritis in Lewis rat assessed as reduction of paw swelling at 0.3 mg/kg, po qd for 7 days relative to control; type: functional; design: scale not given: the % may be the effect or the level left
[4] = Inhibition of anti-CD3/CD28-induced human T cell proliferation
[5] = target: Ribosomal protein S6 kinase alpha-5 (Homo sapiens, UniProt O75582); test: Inhibition of MSK1 by HTRF assay
Chain of Ribosomal protein S6 kinase alpha-5 (O75582 whole entry): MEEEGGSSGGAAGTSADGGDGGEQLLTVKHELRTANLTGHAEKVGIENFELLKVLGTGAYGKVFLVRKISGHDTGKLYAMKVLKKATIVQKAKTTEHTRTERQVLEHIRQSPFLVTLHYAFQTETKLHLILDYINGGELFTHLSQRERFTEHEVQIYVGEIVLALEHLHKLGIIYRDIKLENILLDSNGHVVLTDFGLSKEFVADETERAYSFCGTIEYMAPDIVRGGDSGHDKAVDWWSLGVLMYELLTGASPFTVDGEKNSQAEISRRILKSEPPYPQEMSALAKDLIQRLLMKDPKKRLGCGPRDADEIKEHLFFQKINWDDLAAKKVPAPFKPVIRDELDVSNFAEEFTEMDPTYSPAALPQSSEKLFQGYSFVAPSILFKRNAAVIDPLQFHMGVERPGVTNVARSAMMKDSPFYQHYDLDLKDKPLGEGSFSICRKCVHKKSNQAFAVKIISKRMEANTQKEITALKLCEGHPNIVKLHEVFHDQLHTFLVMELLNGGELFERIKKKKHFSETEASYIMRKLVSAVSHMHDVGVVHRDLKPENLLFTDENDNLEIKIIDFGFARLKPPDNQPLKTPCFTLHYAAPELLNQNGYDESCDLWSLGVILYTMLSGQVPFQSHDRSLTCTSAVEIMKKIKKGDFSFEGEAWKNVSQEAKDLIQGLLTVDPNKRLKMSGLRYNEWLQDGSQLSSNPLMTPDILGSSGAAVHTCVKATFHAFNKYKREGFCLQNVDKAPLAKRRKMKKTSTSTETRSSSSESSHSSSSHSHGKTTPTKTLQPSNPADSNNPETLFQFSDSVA

[6] = AUC (0 to infinity) in Sprague-Dawley rat at 5 mg/kg, po; type: ADME, organism-based; design: time infinity, dose 5 mg/kg, route oral; details: plasma
[7] = Oral bioavailability in Sprague-Dawley rat at 5 mg/kg; type: ADME, organism-based; details: in vivo
Rattus norvegicus [8] = test: Inhibition of Mycobacterium tuberculosis H37Ra-induced arthritis in Lewis rat assessed as reduction of paw swelling at 10 mg/kg, po daily from day 9 to day 17 relative to control; type: functional
[9] = target: Mast/stem cell growth factor receptor Kit (Homo sapiens, UniProt P10721); test: Inhibition of c-Kit by HTRF assay
Mus musculus [10] = species: Mus musculus; test: Inhibition of anti-CD3-induced IL2 production in BALB/c mouse serum by ELISA; type: functional
[11] = target: Tyrosine-protein kinase BTK (Homo sapiens, UniProt Q06187); test: Inhibition of Btk by HTRF assay
Chain of Tyrosine-protein kinase BTK (Q06187 whole entry): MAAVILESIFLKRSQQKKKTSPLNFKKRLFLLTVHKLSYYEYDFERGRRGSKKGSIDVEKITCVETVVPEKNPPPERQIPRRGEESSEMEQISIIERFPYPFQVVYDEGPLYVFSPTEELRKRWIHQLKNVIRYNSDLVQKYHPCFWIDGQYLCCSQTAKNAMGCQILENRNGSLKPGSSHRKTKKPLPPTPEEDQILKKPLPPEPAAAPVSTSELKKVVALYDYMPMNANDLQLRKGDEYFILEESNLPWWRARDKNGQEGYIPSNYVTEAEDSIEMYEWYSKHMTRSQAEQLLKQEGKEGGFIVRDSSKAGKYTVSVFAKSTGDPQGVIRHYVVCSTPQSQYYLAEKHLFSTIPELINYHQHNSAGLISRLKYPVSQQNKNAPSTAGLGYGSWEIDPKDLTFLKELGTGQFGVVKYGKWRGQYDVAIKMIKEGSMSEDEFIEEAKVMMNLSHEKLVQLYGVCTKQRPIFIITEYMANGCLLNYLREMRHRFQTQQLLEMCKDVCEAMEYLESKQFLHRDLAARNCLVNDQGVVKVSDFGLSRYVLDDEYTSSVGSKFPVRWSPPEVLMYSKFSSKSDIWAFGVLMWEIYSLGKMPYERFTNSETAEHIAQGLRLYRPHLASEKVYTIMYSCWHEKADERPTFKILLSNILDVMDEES

[12] = Cmax in Mycobacterium tuberculosis H37Ra-induced arthritis Lewis rat; type: ADME, organism-based; details: in vivo
Rattus norvegicus [13] = test: Inhibition of Mycobacterium tuberculosis H37Ra-induced arthritis in Lewis rat assessed as reduction of paw swelling at 20 mg/kg, po daily from day 9 to day 17 relative to control; type: functional
[14] = Volume of distribution at steady state in Sprague-Dawley rat at 2 mg/kg, iv; type: ADME, organism-based; design: dose 2 mg/kg, route intravenous; details: in vivo, read-out: Vdss
[15] = AUC (0 to infinity) in Sprague-Dawley rat at 2 mg/kg, iv; type: ADME, organism-based; design: time infinity, dose 2 mg/kg, route intravenous; details: plasma
[16] = target: Tyrosine-protein kinase ITK/TSK (Homo sapiens, UniProt Q08881); test: Inhibition of Itk by HTRF assay
[17] = Half life in Sprague-Dawley rat at 2 mg/kg, iv; type: ADME, organism-based; design: dose 2 mg/kg, route intravenous; details: in vivo
[18] = Solubility in simulated intestinal fluid at pH 6.8; type: physicochemical
[19] = target: Mitogen-activated protein kinase 10 (Homo sapiens, UniProt P53779); test: Inhibition of JNK3 by HTRF assay
Chain of Mitogen-activated protein kinase 10 (P53779 whole entry): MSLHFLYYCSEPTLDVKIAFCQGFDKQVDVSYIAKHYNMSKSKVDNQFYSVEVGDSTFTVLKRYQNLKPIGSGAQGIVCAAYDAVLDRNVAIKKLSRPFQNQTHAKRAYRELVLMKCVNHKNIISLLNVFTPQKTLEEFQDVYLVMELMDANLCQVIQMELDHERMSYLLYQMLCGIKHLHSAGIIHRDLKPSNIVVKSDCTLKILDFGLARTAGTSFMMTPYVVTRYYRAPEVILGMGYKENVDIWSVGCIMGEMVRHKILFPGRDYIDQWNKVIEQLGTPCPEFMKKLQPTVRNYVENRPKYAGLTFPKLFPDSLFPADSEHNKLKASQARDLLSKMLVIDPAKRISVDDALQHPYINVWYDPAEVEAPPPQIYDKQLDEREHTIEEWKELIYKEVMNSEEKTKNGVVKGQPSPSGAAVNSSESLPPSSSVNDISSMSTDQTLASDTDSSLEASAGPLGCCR

[20] = Clearance in Sprague-Dawley rat at 2 mg/kg, iv; type: ADME, organism-based; design: dose 2 mg/kg, route intravenous; details: in vivo
[21] = target: Tyrosine-protein kinase ZAP-70 (Homo sapiens, UniProt P43403); test: Inhibition of ZAP-70 by HTRF assay
Chain of Tyrosine-protein kinase ZAP-70 (P43403 whole entry): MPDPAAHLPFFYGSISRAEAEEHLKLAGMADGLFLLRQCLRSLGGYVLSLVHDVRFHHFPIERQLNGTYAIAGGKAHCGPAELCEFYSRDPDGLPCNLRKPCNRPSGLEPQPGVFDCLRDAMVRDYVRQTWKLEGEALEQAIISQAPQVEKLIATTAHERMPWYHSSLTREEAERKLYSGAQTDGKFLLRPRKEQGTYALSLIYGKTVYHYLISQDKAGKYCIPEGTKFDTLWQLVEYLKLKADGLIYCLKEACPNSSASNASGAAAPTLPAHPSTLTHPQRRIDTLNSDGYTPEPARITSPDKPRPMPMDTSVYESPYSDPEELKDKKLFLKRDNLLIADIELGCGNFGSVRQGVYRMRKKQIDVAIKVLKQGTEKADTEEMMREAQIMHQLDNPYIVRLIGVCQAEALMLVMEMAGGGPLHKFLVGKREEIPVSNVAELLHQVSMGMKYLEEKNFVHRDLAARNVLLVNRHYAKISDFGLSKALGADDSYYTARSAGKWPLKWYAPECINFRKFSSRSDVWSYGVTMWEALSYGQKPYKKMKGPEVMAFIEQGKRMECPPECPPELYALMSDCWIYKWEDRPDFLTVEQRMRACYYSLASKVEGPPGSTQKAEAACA

[22] = target: Tyrosine-protein kinase SYK (Homo sapiens, UniProt P43405); test: Inhibition of Syk by HTRF assay
Jurkat = test: Cytotoxicity against human Jurkat T cells assessed as cell viability after 72 hrs
Lymphocyte = test: Inhibition of T cell activation in human peripheral blood lymphocytes by mixed lymphocyte reaction; type: functional, cell-based
[23] = target: Tyrosine-protein kinase JAK3 (Homo sapiens, UniProt P52333); test: Inhibition of JAK3 by HTRF assay
Rattus norvegicus [24] = test: Antiinflammatory activity against collagen-induced arthritis in po dosed Lewis rat assessed as reduction of paw swelling; type: functional
[25] = Tmax in Sprague-Dawley rat at 5 mg/kg, po; type: ADME, organism-based; design: dose 5 mg/kg, route oral; details: in vivo
Rattus norvegicus [26] = test: Inhibition of Mycobacterium tuberculosis H37Ra-induced arthritis in Lewis rat assessed as reduction of paw swelling at 60 mg/kg, po daily from day 9 to day 17 relative to control; type: functional
[27] = target: Mitogen-activated protein kinase 14 (Homo sapiens, UniProt Q16539); test: Inhibition of p38-alpha by HTRF assay
Rattus norvegicus [28] = test: Inhibition of Mycobacterium tuberculosis H37Ra-induced arthritis in po dosed Lewis rat assessed as reduction of paw swelling; type: functional
Mus musculus [29] = test: Inhibition of anti-CD3-induced IL2 production in BALB/c mouse serum at 10 mg/kg, po by ELISA relative to control; type: functional
[30] = target: Mitogen-activated protein kinase 3 (Homo sapiens, UniProt P27361); test: Inhibition of Erk1 by HTRF assay
Chain of Mitogen-activated protein kinase 3 (P27361 whole entry): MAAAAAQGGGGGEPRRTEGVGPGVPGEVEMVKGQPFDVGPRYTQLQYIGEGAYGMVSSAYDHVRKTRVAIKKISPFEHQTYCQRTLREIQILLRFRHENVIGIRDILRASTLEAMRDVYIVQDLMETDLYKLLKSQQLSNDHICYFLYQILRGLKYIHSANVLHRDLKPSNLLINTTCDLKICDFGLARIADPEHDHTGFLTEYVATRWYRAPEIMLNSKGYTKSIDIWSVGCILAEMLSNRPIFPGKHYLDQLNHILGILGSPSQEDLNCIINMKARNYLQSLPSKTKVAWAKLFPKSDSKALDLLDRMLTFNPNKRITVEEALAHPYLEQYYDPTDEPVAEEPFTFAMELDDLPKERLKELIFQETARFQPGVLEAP

Rattus norvegicus [31] = test: Antiinflammatory activity against collagen-induced arthritis in Lewis rat assessed as reduction of paw swelling at 3 mg/kg, po qd for 7 days relative to control; type: functional; design: scale not given: the % may be the effect or the level left
[32] = AUC in collagen-induced arthritis Lewis rat; type: ADME, organism-based; details: plasma
Mus musculus [33] = test: Inhibition of anti-CD3-induced IL2 production in BALB/c mouse serum at 3 mg/kg, po by ELISA relative to control; type: functional
[34] = target: Tyrosine-protein kinase Lyn (Homo sapiens, UniProt P07948); test: Inhibition of Lyn by HTRF assay
Chain of Tyrosine-protein kinase Lyn (P07948 whole entry): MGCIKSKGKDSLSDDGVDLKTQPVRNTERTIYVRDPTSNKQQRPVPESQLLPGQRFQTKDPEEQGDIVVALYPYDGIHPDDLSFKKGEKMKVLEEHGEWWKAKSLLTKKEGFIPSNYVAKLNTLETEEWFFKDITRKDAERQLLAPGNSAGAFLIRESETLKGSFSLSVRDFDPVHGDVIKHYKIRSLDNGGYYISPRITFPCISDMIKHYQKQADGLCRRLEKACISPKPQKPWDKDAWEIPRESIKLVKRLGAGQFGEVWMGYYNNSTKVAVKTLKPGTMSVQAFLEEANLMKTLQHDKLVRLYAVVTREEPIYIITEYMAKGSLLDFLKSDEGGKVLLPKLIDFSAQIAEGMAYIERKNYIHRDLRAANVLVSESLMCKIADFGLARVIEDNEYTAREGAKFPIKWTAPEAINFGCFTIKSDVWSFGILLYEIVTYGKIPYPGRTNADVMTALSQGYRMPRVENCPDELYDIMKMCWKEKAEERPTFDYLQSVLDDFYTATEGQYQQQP

T-cell [35] = test: Inhibition of anti-CD3/CD28-induced IL2 secretion in human T cells stimulated with phorbol myristic acid and calcium ionophore
[36] = Cmax in Sprague-Dawley rat at 5 mg/kg, po; type: ADME, organism-based; design: dose 5 mg/kg, route oral; details: in vivo
T-cell [37] = test: Inhibition of anti-CD3/CD28-induced IL2 production in human T cells; type: functional, cell-based
Mus musculus [38] = test: Inhibition of anti-CD3-induced IL2 production in BALB/c mouse serum at 30 mg/kg, po by ELISA relative to control; type: functional
[39] = target: Serine/threonine-protein kinase B-raf (Homo sapiens, UniProt P15056); test: Inhibition of b-Raf by HTRF assay
Angiopoietin-1 receptor = Angiopoietin-1 receptor (Homo sapiens, UniProt Q02763); test: Inhibition of Tie-2 by HTRF assay
Chain of Angiopoietin-1 receptor (Q02763 whole entry): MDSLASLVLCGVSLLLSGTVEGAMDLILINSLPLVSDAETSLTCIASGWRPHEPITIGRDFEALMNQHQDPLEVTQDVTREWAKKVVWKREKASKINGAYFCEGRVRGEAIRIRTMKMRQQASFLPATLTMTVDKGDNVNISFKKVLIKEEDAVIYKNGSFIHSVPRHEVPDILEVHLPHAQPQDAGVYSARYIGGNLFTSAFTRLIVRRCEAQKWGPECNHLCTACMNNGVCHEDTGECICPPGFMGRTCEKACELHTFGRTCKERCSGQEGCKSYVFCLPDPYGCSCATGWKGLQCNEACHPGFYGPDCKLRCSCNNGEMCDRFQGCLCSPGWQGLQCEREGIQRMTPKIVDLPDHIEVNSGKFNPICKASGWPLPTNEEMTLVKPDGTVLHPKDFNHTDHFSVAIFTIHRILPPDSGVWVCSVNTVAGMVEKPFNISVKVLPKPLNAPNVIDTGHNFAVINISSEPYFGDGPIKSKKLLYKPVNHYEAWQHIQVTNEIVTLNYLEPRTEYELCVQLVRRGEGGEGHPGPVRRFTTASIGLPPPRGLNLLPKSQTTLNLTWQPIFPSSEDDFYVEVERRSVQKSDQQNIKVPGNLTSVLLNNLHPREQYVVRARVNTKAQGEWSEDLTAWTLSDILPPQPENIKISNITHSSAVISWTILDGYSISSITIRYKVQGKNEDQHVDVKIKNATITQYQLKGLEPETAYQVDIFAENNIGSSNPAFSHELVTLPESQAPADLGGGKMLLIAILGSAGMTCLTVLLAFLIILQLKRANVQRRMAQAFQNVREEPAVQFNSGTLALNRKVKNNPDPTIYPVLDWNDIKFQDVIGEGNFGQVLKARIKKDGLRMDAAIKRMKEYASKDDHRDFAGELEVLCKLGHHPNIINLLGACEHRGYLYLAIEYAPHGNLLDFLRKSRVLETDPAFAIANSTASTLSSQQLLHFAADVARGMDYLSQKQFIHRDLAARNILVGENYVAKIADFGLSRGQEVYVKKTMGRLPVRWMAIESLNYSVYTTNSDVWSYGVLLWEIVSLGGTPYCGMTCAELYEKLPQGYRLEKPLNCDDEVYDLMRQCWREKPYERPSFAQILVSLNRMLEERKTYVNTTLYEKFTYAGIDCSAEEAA

[40] = target: Vascular endothelial growth factor receptor 2 (Homo sapiens, UniProt P35968); test: Inhibition of KDR by HTRF assay
[41] = target: Mitogen-activated protein kinase 9 (Homo sapiens, UniProt P45984); test: Inhibition of JNK2 by HTRF assay
Chain of Mitogen-activated protein kinase 9 (P45984 whole entry): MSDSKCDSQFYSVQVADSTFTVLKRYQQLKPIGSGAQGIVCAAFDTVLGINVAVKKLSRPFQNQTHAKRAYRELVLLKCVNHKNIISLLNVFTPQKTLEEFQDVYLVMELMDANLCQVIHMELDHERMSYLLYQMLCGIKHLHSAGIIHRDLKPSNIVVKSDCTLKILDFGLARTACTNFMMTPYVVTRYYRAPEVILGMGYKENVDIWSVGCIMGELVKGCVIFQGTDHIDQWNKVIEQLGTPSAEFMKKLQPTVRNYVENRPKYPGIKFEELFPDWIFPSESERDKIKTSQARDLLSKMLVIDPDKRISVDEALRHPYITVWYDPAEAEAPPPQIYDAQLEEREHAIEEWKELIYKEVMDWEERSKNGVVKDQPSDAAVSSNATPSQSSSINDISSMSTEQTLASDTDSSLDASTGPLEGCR

[42] = Cmax in collagen-induced arthritis Lewis rat; type: ADME, organism-based; details: in vivo
[43] = AUC in Mycobacterium tuberculosis H37Ra-induced arthritis Lewis rat; type: ADME, organism-based; details: plasma

Cc1cccc(C)c1-n1c(=O)c2cnc(Nc3ccc(N4CCN(C)CC4)cc3)nc2n2c3ccccc3nc12
Activity (Rattus norvegicus [1]): 95%
Activity (Rattus norvegicus [2]): 21%
Activity (Rattus norvegicus [3]): 15%
pIC50 [4]: 6.28
pIC50 [5]: < 4.00
AUC(0-inf) [6]: 862 ng·h/mL
bioavailability [7]: 17%
inhibition in vivo at 10 mg/kg (Rattus norvegicus [8]): 17%
pIC50 [9]: 6.25
ED50 (Mus musculus [10]): 26 mg/kg
pIC50 [11]: 6.39
Cmax [12]: 700 nM
inhibition in vivo at 20 mg/kg (Rattus norvegicus [13]): 64%
Vd [14]: 7.5 L/kg
AUC(0-inf) [15]: 1150 ng·h/mL
pIC50 [16]: < 4.70
half-life [17]: 3.12 h
solubility [18]: 153 µg/mL (≈ 288 µM)
pIC50 [19]: 5.14
clearance [20]: 30 mL/min/kg
pIC50 [21]: 5.82
pIC50 [22]: 6.70
pIC50 (Jurkat): 6.31
pIC50 (Lymphocyte): 7.33
pIC50 [23]: 6.82
ED50 (Rattus norvegicus [24]): 3.2 mg/kg
Tmax [25]: 3 h
inhibition in vivo at 60 mg/kg (Rattus norvegicus [26]): 90%
pIC50 [27]: < 5.00
ED50 (Rattus norvegicus [28]): 24 mg/kg
inhibition in vivo at 10 mg/kg (Mus musculus [29]): 28%
pIC50 [30]: < 4.00
Activity (Rattus norvegicus [31]): 49%
AUC [32]: 3.3 µM·h
inhibition in vivo at 3 mg/kg (Mus musculus [33]): 15%
pIC50 [34]: 7.68
pIC50 (T-cell [35]): 5.24
Cmax [36]: 82 ng/mL
pIC50 (T-cell [37]): 6.34
inhibition in vivo at 30 mg/kg (Mus musculus [38]): 56%
pIC50 [39]: 6.27
pIC50 (Angiopoietin-1 receptor): 6.12
pIC50 [40]: 5.29
pIC50 [41]: < 4.40
Cmax [42]: 500 nM
AUC [43]: 2.7 µM·h
